Structures are written as SMILES.

T1 sequence (P34972 whole entry): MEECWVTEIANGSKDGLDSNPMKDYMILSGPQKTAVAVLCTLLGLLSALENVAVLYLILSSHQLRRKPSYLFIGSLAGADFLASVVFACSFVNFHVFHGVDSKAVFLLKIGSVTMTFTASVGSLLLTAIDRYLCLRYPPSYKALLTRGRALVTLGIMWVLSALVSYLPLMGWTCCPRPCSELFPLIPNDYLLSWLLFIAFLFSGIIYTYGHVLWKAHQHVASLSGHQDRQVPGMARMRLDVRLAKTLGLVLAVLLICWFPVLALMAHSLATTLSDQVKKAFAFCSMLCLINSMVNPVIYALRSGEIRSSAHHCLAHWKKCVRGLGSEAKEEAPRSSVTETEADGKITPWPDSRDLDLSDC

This assay has as its target T1, human CB2R (Homo sapiens, UniProt P34972).
T1 construct: host or cells: CHO cells
The assay can be described thus: CB2R mediated modulation of cAMP synthesis. It counts as cell-based. The note with it: found through the use of the above described assays (binding and cAMP); CHO cells expressing human CB2R, forskolin-stimulated cAMP. In outline:
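CHO cells expressing human CB2R were treated for 30 min at 37 °C with compound in buffer containing 1 mM IBMX, 0.25% BSA and 10 uM forskolin. cAMP was measured after lysis. EC50 is the concentration giving 50% inhibition of forskolin-stimulated cAMP, scaled to the level set by 1 uM CP55940, fitted by four-parameter logistic.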
`CC(C)(C(=O)Nc1nc(-c2ccc(Cl)cc2)cs1)S(=O)(=O)c1ccc(F)cc1F` [N-[4-(4-Chloro-phenyl)-thiazol-2-yl]-2-(2,4-difluoro-benzenesulfonyl)-2-methyl-propionamide]: the agonistic activity result is “agonistic activity”. Turning to `CC(C)(C(=O)Nc1nc(-c2ccccc2)ns1)S(=O)(=O)c1ccc(Cl)cc1` [2-(4-Chloro-benzenesulfonyl)-2-methyl-N-(3-phenyl-[1,2,4]thiadiazol-5-yl)-propionamide], the agonistic activity entry is “agonistic activity”.

On to `CC(C)(C(=O)Nc1ccc(Cl)cc1)S(=O)(=O)c1ccc(Cl)cc1` [2-(4-Chloro-benzenesulfonyl)-N-(4-chloro-phenyl)-2-methyl-propionamide], for which the agonistic activity result is “agonistic activity”. For the molecule `CC(C)(C)c1cc(NC(=O)C(C)(C)S(=O)(=O)c2cccc(C(F)(F)F)c2)no1` [N-(5-tert-Butyl-isoxazol-3-yl)-2-methyl-2-(3-trifluoromethyl-benzenesulfonyl)-propionamide], the agonistic activity entry is given as “agonistic activity”. Take `CC(C)(C(=O)Nc1nc2ccccc2s1)S(=O)(=O)c1ccc(C(F)(F)F)nc1` [N-1,3-benzothiazol-2-yl-2-methyl-2-{[6-(trifluoromethyl)pyridin-3-yl]sulfonyl}propanamide]: the agonistic activity result was “agonistic activity”. For `Cn1nc(C(C)(C)C)cc1NC(=O)C(C)(C)S(=O)(=O)c1cc(F)ccc1F` [N-(5-tert-Butyl-2-methyl-2H-pyrazol-3-yl)-2-(2,5-difluoro-benzenesulfonyl)-2-methyl-propionamide], the agonistic activity entry was “agonistic activity”. Consider `CC(C)(C(=O)Nc1cnc2ccccc2c1)S(=O)(=O)c1ccc(C(F)(F)F)nc1` [2-methyl-N-quinolin-3-yl-2-{[6-(trifluoromethyl)pyridin-3-yl]sulfonyl}propanamide], for which the agonistic activity result is recorded as “agonistic activity”. For `CC(C)(C)c1cc(NC(=O)C2(S(=O)(=O)c3ccc(C(F)(F)F)cc3)CCOCC2)no1` [4-(4-Trifluoromethyl-benzenesulfonyl)-tetrahydro-pyran-4-carboxylic acid (5-tert-butyl-isoxazol-3-yl)-amide], the agonistic activity entry is listed as “agonistic activity”. `CC(C)(C)c1csc(NC(=O)C(C)(C)S(=O)(=O)c2ccc(Cl)c(Cl)c2)n1` [N-(4-tert-Butyl-thiazol-2-yl)-2-(3,4-dichloro-benzenesulfonyl)-2-methyl-propionamide]: the agonistic activity entry is “agonistic activity”. On to `CC(C)(C(=O)Nc1ccc(C(F)(F)F)cn1)S(=O)(=O)c1ccc(Cl)cc1F` [2-(4-Chloro-2-fluoro-benzenesulfonyl)-2-methyl-N-(5-trifluoromethyl-pyridin-2-yl)-propionamide], for which the agonistic activity result was “agonistic activity”. `COc1ccc(S(=O)(=O)C(C)(C)C(=O)Nc2cc(-c3ccccc3)nn2C)cc1` [2-(4-Methoxy-benzenesulfonyl)-2-methyl-N-(2-methyl-5-phenyl-2H-pyrazol-3-yl)-propionamide]: the agonistic activity entry is on record as “agonistic activity”. For `CC(C)(C)c1cc(NC(=O)C(C)(C)S(=O)(=O)c2ccc(C(F)(F)F)cc2)on1` [N-(3-tert-Butyl-isoxazol-5-yl)-2-methyl-2-(4-trifluoromethyl-benzenesulfonyl)-propionamide], the agonistic activity entry was “agonistic activity”. Turning to `CC(C)(C)c1csc(NC(=O)C(C)(C)S(=O)(=O)c2ccc(C#N)cc2F)n1` [N-(4-tert-Butyl-thiazol-2-yl)-2-(4-cyano-2-fluoro-benzenesulfonyl)-2-methyl-propionamide], the agonistic activity entry was “agonistic activity”. Consider `CC(C)(C(=O)Nc1nc(-c2ccccc2)cs1)S(=O)(=O)c1ccc(Cl)cc1` [2-(4-Chloro-benzenesulfonyl)-2-methyl-N-(4-phenyl-thiazol-2-yl)-propionamide], for which the agonistic activity entry is reported as “agonistic activity”.

Consider `Cn1nc(-c2ccccc2)cc1NC(=O)C(C)(C)S(=O)(=O)c1ccc(Cl)cc1` [2-(4-Chloro-benzenesulfonyl)-2-methyl-N-(2-methyl-5-phenyl-2H-pyrazol-3-yl)-propionamide], for which the agonistic activity result is recorded as “agonistic activity”.

Regarding `CC(C)(C(=O)Nc1ccc(C(F)(F)F)cn1)S(=O)(=O)c1cc(F)ccc1F` [2-(2,5-Difluoro-benzenesulfonyl)-2-methyl-N-(5-trifluoromethyl-pyridin-2-yl)-propionamide], the agonistic activity result is listed as “agonistic activity”. For `CCCc1cc(NC(=O)C(C)(C)S(=O)(=O)c2ccc(Cl)cc2F)on1` [2-[(4-chloro-2-fluorophenyl)sulfonyl]-2-methyl-N-(3-propylisoxazol-5-yl)propanamide] the value was “agonistic activity”. As to `CC(C)(C(=O)Nc1nc(-c2ccccc2)cs1)S(=O)(=O)c1ccc(C(F)(F)F)nc1` [2-methyl-N-(4-phenyl-1,3-thiazol-2-yl)-2-{[6-(trifluoromethyl)pyridin-3-yl]sulfonyl}propanamide], the agonistic activity entry was “agonistic activity”. To `COc1ccc(NC(=O)C(C)(C)S(=O)(=O)c2ccc(Cl)cc2)cn1` [2-(4-Chloro-benzenesulfonyl)-N-(6-methoxy-pyridin-3-yl)-2-methyl-propionamide] belongs “agonistic activity”. For `COc1ccc(S(=O)(=O)C(C)(C)C(=O)Nc2nc(C(C)(C)C)cs2)cn1` [N-(4-tert-Butyl-thiazol-2-yl)-2-(6-methoxy-pyridine-3-sulfonyl)-2-methyl-propionamide] the value was “agonistic activity”; for `CC(C)(C)c1cc(NC(=O)C(C)(C)S(=O)(=O)c2ccc(Cl)cc2Cl)no1` [N-(5-tert-Butyl-isoxazol-3-yl)-2-(2,4-dichloro-benzenesulfonyl)-2-methyl-propionamide], “agonistic activity”; for `CC(C)(C(=O)Nc1cc2ccccc2cn1)S(=O)(=O)c1ccc(Cl)cc1F` [2-[(4-chloro-2-fluorophenyl)sulfonyl]-N-isoquinolin-3-yl-2-methylpropanamide], “agonistic activity”.

Consider `CC(C)(C(=O)Nc1nc2ccccc2o1)S(=O)(=O)c1ccc(C(F)(F)F)nc1` [N-1,3-benzoxazol-2-yl-2-methyl-2-{[6-(trifluoromethyl)pyridin-3-yl]sulfonyl}propanamide], for which the agonistic activity entry is on record as “agonistic activity”. `COc1ccc(S(=O)(=O)C(C)(C)C(=O)Nc2cc(C(C)(C)C)no2)cc1` [N-(3-tert-Butyl-isoxazol-5-yl)-2-(4-methoxy-benzenesulfonyl)-2-methyl-propionamide]: the agonistic activity result is on record as “agonistic activity”. To `CC(C)(C)c1csc(NC(=O)C(C)(C)S(=O)(=O)c2ccc(Cl)cc2)n1` [N-(4-tert-Butyl-thiazol-2-yl)-2-(4-chloro-benzenesulfonyl)-2-methyl-propionamide] belongs “agonistic activity”. Turning to `CC(C)(C(=O)Nc1cnc2ccccc2c1)S(=O)(=O)c1ccc(S(C)(=O)=O)cc1` [2-(4-Methanesulfonyl-benzenesulfonyl)-2-methyl-N-quinolin-3-yl-propionamide], the agonistic activity entry is “agonistic activity”. As for `CCCc1cc(NC(=O)C(C)(C)S(=O)(=O)c2ccc(F)cc2F)on1` [2-[(2,4-difluorophenyl)sulfonyl]-2-methyl-N-(3-propylisoxazol-5-yl)propanamide], the agonistic activity entry is reported as “agonistic activity”. For `CCC(C)c1cc(NC(=O)C(C)(C)S(=O)(=O)c2ccc(Cl)cc2)on1` (stereo not drawn) [N-(3-sec-Butyl-isoxazol-5-yl)-2-(4-chloro-benzenesulfonyl)-2-methyl-propionamide] the value was “agonistic activity”; for `Cc1nc(NC(=O)C2(S(=O)(=O)c3ccc(C(F)(F)F)cc3)CC2)sc1C(C)(C)C` [1-(4-Trifluoromethyl-benzenesulfonyl)-cyclopropanecarboxylic acid (5-tert-butyl-4-methyl-thiazol-2-yl)-amide], “agonistic activity”; for `CC(C)(C)c1cc(NC(=O)C(C)(C)S(=O)(=O)c2ccc(Cl)c(Cl)c2)no1` [N-(5-tert-Butyl-isoxazol-3-yl)-2-(3,4-dichloro-benzenesulfonyl)-2-methyl-propionamide], “agonistic activity”. To `CCC(C)c1cc(NC(=O)C(C)(C)S(=O)(=O)c2ccc(Cl)cc2)n(C)n1` (stereo not drawn) [N-(5-sec-Butyl-2-methyl-2H-pyrazol-3-yl)-2-(4-chloro-benzenesulfonyl)-2-methyl-propionamide] belongs “agonistic activity”; to `CC(C)(C(=O)Nc1cccc2ccccc12)S(=O)(=O)c1ccc(C(F)(F)F)nc1` [2-methyl-N-1-naphthyl-2-{[6-(trifluoromethyl)pyridin-3-yl]sulfonyl}propanamide], “agonistic activity”.

Turning to `Cc1ccc(S(=O)(=O)C(C)(C)C(=O)Nc2cc(C(C)(C)C)on2)cn1` [N-(5-tert-Butyl-isoxazol-3-yl)-2-methyl-2-(6-methyl-pyridine-3-sulfonyl)-propionamide], the agonistic activity result was “agonistic activity”. Consider `COc1ccc(S(=O)(=O)C(C)(C)C(=O)Nc2cccc(C(F)(F)F)n2)cc1` [2-[(4-methoxyphenyl)sulfonyl]-2-methyl-N-[6-(trifluoromethyl)pyridin-2-yl]propanamide], for which the agonistic activity entry is on record as “agonistic activity”.

Turning to `CC(C)(C(=O)Nc1ccccc1Cl)S(=O)(=O)c1ccc(C(F)(F)F)cc1` [N-(2-Chloro-phenyl)-2-methyl-2-(4-trifluoromethyl-benzenesulfonyl)-propionamide], the agonistic activity result is listed as “agonistic activity”. Consider `Cc1ccc(S(=O)(=O)C(C)(C)C(=O)Nc2cc(C(C)(C)C)on2)cc1F` [N-(5-tert-Butyl-isoxazol-3-yl)-2-(3-fluoro-4-methyl-benzenesulfonyl)-2-methyl-propionamide], for which the agonistic activity result was “agonistic activity”.

Values taken from patent US8299111B2, “Compounds which modulate the CB2 receptor” (Boehringer Ingelheim International GmbH, priority 2006, dated 2012).
